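Assay format: 96-well plates, 48-hour exposure. Abbreviation: GI50, concentration required for 50% inhibition of growth.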 Active and inactive are the calls of the source. Rule as the data show it: active = GI50 up to about 1.1 µM and inactive = higher.
How the values were obtained:
Assay in all cases: NCI anticancer screen, dose series, 48 h
BT-549 = system: BT-549
NCI/ADR-RES = system: NCI/ADR-RES
HCT-15 = system: HCT-15
MDA-MB-231 = system: MDA-MB-231
HL-60 = system: HL-60
Malme-3M = system: Malme-3M
TK-10 = system: TK-10
UO-31 = system: UO-31
NCI-H23 = system: NCI-H23
EKVX = system: EKVX
SF-268 = system: SF-268
PC-3 = system: PC-3
SK-MEL-5 = system: SK-MEL-5
OVCAR-5 = system: OVCAR-5
786-0 = system: 786-0
OVCAR-4 = system: OVCAR-4
NCI-H522 = system: NCI-H522
NCI-H226 = system: NCI-H226
A498 = system: A498
K562 = system: K562
NCI-H460 = system: NCI-H460
SW-620 = system: SW-620
COLO 205 = system: COLO 205
MCF7 = system: MCF7
MDA-N = system: MDA-N
OVCAR-8 = system: OVCAR-8
UACC-62 = system: UACC-62
SNB-75 = system: SNB-75
A549 = system: A549
KM12 = system: KM12
SR = system: SR
HCC 2998 = system: HCC 2998
CAKI-1 = system: CAKI-1
DU-145 = system: DU-145
SK-OV-3 = system: SK-OV-3
SK-MEL-28 = system: SK-MEL-28
HT-29 = system: HT-29
CCRF-CEM = system: CCRF-CEM
T47D = system: T47D
HCT-116 = system: HCT-116
U-251 = system: U-251
Hs-578T = system: Hs-578T
SN12C = system: SN12C
HOP-92 = system: HOP-92
SK-MEL-2 = system: SK-MEL-2
MDA-MB-435 = system: MDA-MB-435
MOLT-4 = system: MOLT-4
ACHN = system: ACHN
SNB-19 = system: SNB-19
OVCAR-3 = system: OVCAR-3
M14 = system: M14
SF-539 = system: SF-539
HOP-62 = system: HOP-62
UACC-257 = system: UACC-257
SF-295 = system: SF-295
IGROV-1 = system: IGROV-1
RXF 393 = system: RXF 393
RPMI-8226 = system: RPMI-8226
LOX IMVI = system: LOX IMVI

In the case of O=C(c1ccco1)N(C(=O)N1CCN(c2ccccc2)CC1)S(=O)(=O)c1ccccc1, the GI50 (BT-549) is reported as 32.7 µM (inactive), the GI50 (NCI/ADR-RES) is reported as 23.2 µM (inactive) and the GI50 (HCT-15) is reported as 33.4 µM. The GI50 (MDA-MB-231) was 36.9 µM (inactive), the GI50 (HL-60) was 21.2 µM (inactive) and the GI50 (Malme-3M) was 29 µM (inactive). The GI50 (TK-10) was 33.3 µM (inactive), the GI50 (UO-31) was 21.9 µM (inactive) and the GI50 (NCI-H23) was 23.7 µM (inactive). For the same molecule, the GI50 (EKVX) was 22.4 µM (inactive), the GI50 (SF-268) was 37.7 µM (inactive) and the GI50 (PC-3) was 28.6 µM (inactive). For the same molecule, the GI50 (SK-MEL-5) was 24.4 µM (inactive), the GI50 (OVCAR-5) was 41.6 µM (inactive) and the GI50 (786-0) was 32.1 µM (inactive). For the same molecule, the GI50 (OVCAR-4) was 27.5 µM (inactive), the GI50 (NCI-H522) was 18.3 µM (inactive) and the GI50 (NCI-H226) was 26.4 µM (inactive). The GI50 (A498) was 37.5 µM (inactive), the GI50 (K562) was 33 µM (inactive) and the GI50 (NCI-H460) was 32.3 µM (inactive). The GI50 (SW-620) was 38.5 µM (inactive), the GI50 (COLO 205) was 28.4 µM (inactive) and the GI50 (MCF7) was 29.4 µM (inactive). The GI50 (MDA-N) was 22.5 µM (inactive), the GI50 (OVCAR-8) was 32.6 µM (inactive) and the GI50 (UACC-62) was 27.4 µM (inactive). For the same molecule, the GI50 (SNB-75) was 24.5 µM (inactive), the GI50 (A549) was 34.4 µM (inactive) and the GI50 (KM12) was 37.8 µM (inactive). For the same molecule, the GI50 (SR) was 23.8 µM (inactive), the GI50 (HCC 2998) was 48.4 µM (inactive) and the GI50 (CAKI-1) was 22.8 µM (inactive). For the same molecule, the GI50 (DU-145) was 43.7 µM (inactive), the GI50 (SK-OV-3) was > 100 µM (inactive) and the GI50 (SK-MEL-28) was 39.2 µM (inactive). The GI50 (HT-29) was 35.8 µM (inactive), the GI50 (CCRF-CEM) was 27 µM (inactive) and the GI50 (T47D) was 24.2 µM (inactive). For the same molecule, the GI50 (HCT-116) was 21.3 µM (inactive), the GI50 (U-251) was 27.4 µM (inactive) and the GI50 (Hs-578T) was 32 µM (inactive). For the same molecule, the GI50 (SN12C) was 23.9 µM (inactive), the GI50 (HOP-92) was 27.3 µM (inactive) and the GI50 (SK-MEL-2) was 18.5 µM (inactive). The GI50 (MDA-MB-435) was 23.3 µM (inactive), the GI50 (MOLT-4) was 21.9 µM (inactive) and the GI50 (ACHN) was 24.7 µM (inactive). For the same molecule, the GI50 (SNB-19) was 27.7 µM (inactive), the GI50 (OVCAR-3) was 26.9 µM (inactive) and the GI50 (M14) was 23 µM (inactive). The GI50 (SF-539) was 19.1 µM (inactive), the GI50 (HOP-62) was 39.1 µM (inactive) and the GI50 (UACC-257) was 32 µM (inactive). The GI50 (SF-295) was 43.6 µM (inactive).

With CN(C)CCCNc1ccc2nnn3c4ccc(OC(=O)c5ccc([N+](=O)[O-])cc5)cc4c(=O)c1c23 the GI50 (BT-549) was 16.4 µM (inactive), the GI50 (NCI/ADR-RES) was 8.2 µM (inactive) and the GI50 (HCT-15) was 2.72 µM. The GI50 (MDA-MB-231) was 9.04 µM (inactive), the GI50 (Malme-3M) was 4.92 µM (inactive) and the GI50 (TK-10) was 5.82 µM (inactive). The GI50 (UO-31) was 4.67 µM (inactive), the GI50 (IGROV-1) was 1.07 µM (active) and the GI50 (NCI-H23) was 6.73 µM (inactive). The GI50 (RXF 393) was 1.33 µM (inactive), the GI50 (EKVX) was 8.85 µM (inactive) and the GI50 (SF-268) was 4.09 µM (inactive). The GI50 (PC-3) was 2.74 µM (inactive), the GI50 (OVCAR-5) was 11.5 µM (inactive) and the GI50 (786-0) was 1.52 µM (inactive). For the same molecule, the GI50 (OVCAR-4) was 2.47 µM (inactive), the GI50 (NCI-H522) was 1.32 µM (inactive) and the GI50 (A498) was 16.6 µM (inactive). The GI50 (K562) was 2.86 µM (inactive), the GI50 (NCI-H460) was 0.467 µM (active) and the GI50 (SW-620) was 2.32 µM (inactive). For the same molecule, the GI50 (COLO 205) was 5.22 µM (inactive), the GI50 (MCF7) was 2.27 µM (inactive) and the GI50 (MDA-N) was 11 µM (inactive). The GI50 (OVCAR-8) was 2.26 µM (inactive), the GI50 (UACC-62) was 15.9 µM (inactive) and the GI50 (A549) was 1.28 µM (inactive). For the same molecule, the GI50 (KM12) was 5.64 µM (inactive), the GI50 (SR) was 0.574 µM (active) and the GI50 (HCC 2998) was 5.64 µM (inactive). For the same molecule, the GI50 (RPMI-8226) was 2.44 µM (inactive), the GI50 (CAKI-1) was 0.649 µM (active) and the GI50 (DU-145) was 2.61 µM (inactive). For the same molecule, the GI50 (SK-OV-3) was 6.98 µM (inactive), the GI50 (SK-MEL-28) was 13.7 µM (inactive) and the GI50 (HT-29) was 2.55 µM (inactive). For the same molecule, the GI50 (CCRF-CEM) was 0.849 µM (active), the GI50 (T47D) was 24.2 µM (inactive) and the GI50 (HCT-116) was 1.51 µM (inactive). The GI50 (U-251) was 4.58 µM (inactive), the GI50 (Hs-578T) was 9.77 µM (inactive) and the GI50 (SN12C) was 3.05 µM (inactive). For the same molecule, the GI50 (HOP-92) was 10.6 µM (inactive), the GI50 (SK-MEL-2) was 18.8 µM (inactive) and the GI50 (MDA-MB-435) was 5.7 µM (inactive). For the same molecule, the GI50 (MOLT-4) was 0.408 µM (active), the GI50 (ACHN) was 1.5 µM (inactive) and the GI50 (SNB-19) was 2.95 µM (inactive). For the same molecule, the GI50 (OVCAR-3) was 10.9 µM (inactive), the GI50 (M14) was 13 µM (inactive) and the GI50 (SF-539) was 2.9 µM (inactive). The GI50 (HOP-62) was 3.54 µM (inactive), the GI50 (UACC-257) was 11.7 µM (inactive) and the GI50 (LOX IMVI) was 1.8 µM (inactive). For the same molecule, the GI50 (SF-295) was 5.6 µM (inactive).

For C=CC(OC(=O)C(C)C)c1ccc(OC(=O)C(C)C)cc1 (configuration not stated), the GI50 (BT-549) was 17.4 µM (inactive), the GI50 (NCI/ADR-RES) was 14.2 µM (inactive) and the GI50 (HCT-15) was 5.74 µM. For the same molecule, the GI50 (MDA-MB-231) was 16.4 µM (inactive), the GI50 (HL-60) was 2.92 µM (inactive) and the GI50 (Malme-3M) was 7.57 µM (inactive). For the same molecule, the GI50 (UO-31) was 17.2 µM (inactive), the GI50 (IGROV-1) was 18.4 µM (inactive) and the GI50 (NCI-H23) was 20 µM (inactive). The GI50 (EKVX) was 22.4 µM (inactive), the GI50 (SF-268) was 26.2 µM (inactive) and the GI50 (PC-3) was 8.97 µM (inactive). The GI50 (SK-MEL-5) was 16.3 µM (inactive), the GI50 (OVCAR-5) was 6.5 µM (inactive) and the GI50 (786-0) was 4.69 µM (inactive). The GI50 (OVCAR-4) was 14.8 µM (inactive), the GI50 (NCI-H522) was 1.73 µM (inactive) and the GI50 (NCI-H226) was 20.6 µM (inactive). For the same molecule, the GI50 (A498) was 17.6 µM (inactive), the GI50 (K562) was 7.96 µM (inactive) and the GI50 (NCI-H460) was 13.9 µM (inactive). For the same molecule, the GI50 (SW-620) was 4.06 µM (inactive), the GI50 (COLO 205) was 8.87 µM (inactive) and the GI50 (MCF7) was 3.3 µM (inactive). For the same molecule, the GI50 (MDA-N) was 12.5 µM (inactive), the GI50 (OVCAR-8) was 17.5 µM (inactive) and the GI50 (UACC-62) was 15.8 µM (inactive). The GI50 (SNB-75) was 15 µM (inactive), the GI50 (A549) was 19.5 µM (inactive) and the GI50 (KM12) was 2.21 µM (inactive). The GI50 (SR) was 6.92 µM (inactive), the GI50 (HCC 2998) was 13.1 µM (inactive) and the GI50 (RPMI-8226) was 2.04 µM (inactive). The GI50 (CAKI-1) was 2.56 µM (inactive), the GI50 (DU-145) was 32.9 µM (inactive) and the GI50 (SK-OV-3) was 19.8 µM (inactive). For the same molecule, the GI50 (SK-MEL-28) was 10.6 µM (inactive), the GI50 (HT-29) was 11.1 µM (inactive) and the GI50 (CCRF-CEM) was 3.24 µM (inactive). The GI50 (T47D) was 21.6 µM (inactive), the GI50 (HCT-116) was 4.06 µM (inactive) and the GI50 (U-251) was 4.33 µM (inactive). The GI50 (Hs-578T) was 35.7 µM (inactive), the GI50 (SN12C) was 14 µM (inactive) and the GI50 (HOP-92) was 16.7 µM (inactive). For the same molecule, the GI50 (SK-MEL-2) was 11.2 µM (inactive), the GI50 (MDA-MB-435) was 13.6 µM (inactive) and the GI50 (MOLT-4) was 6.93 µM (inactive). For the same molecule, the GI50 (ACHN) was 14.6 µM (inactive), the GI50 (SNB-19) was 14.9 µM (inactive) and the GI50 (OVCAR-3) was 16.9 µM (inactive). The GI50 (M14) was 7.67 µM (inactive), the GI50 (SF-539) was 17 µM (inactive) and the GI50 (HOP-62) was 9.95 µM (inactive). The GI50 (UACC-257) was 14.7 µM (inactive), the GI50 (LOX IMVI) was 4.47 µM (inactive) and the GI50 (SF-295) was 15.6 µM (inactive).

Reference: ChEMBL document CHEMBL1201862, “PubChem BioAssay data set” (2004)
